Laboratory results taken from US12441695B2, “Substituted thiadiazinone dioxide and preparation method therefor, herbicidal composition, and application therefor” (Qingdao Kingagroot Chemical Compound Co., Ltd., priority 2019, dated 2025).

Tests used:
[1] = system: gramineous weeds; conditions: in vivo; cited from earlier work
[2] = system: monocotyledonous and dicotyledonous weeds; assay: Experiment on weeding effect in post-emergence stage (weeds); assay type: in vivo; conditions: 600 g/ha active ingredient plus water 450 kg/ha, 3 weeks after application, fresh weight control rate; for Amaranthus retroflexus activity level (growth control rate): fomesafen-resistant Amaranthus retroflexus
Procedure, shortened: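 Greenhouse pot-grown weeds and crops sprayed post-emergence 2–3 weeks after sowing with compound in acetone/Tween 80/water. Fresh-weight growth control scored after 3 weeks on a 0–5 scale (5: >85%, 0: <5%).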

[3] = system: major crops (wheat, corn, rice, soybean, cotton, oilseed rape, millet, sorghum); assay: Experiment on weeding effect in post-emergence stage (crops); assay type: in vivo; conditions: 600 g/ha active ingredient plus water 450 kg/ha, 3 weeks after application; for corn plant damage level (growth control rate): crop corn; for rice plant damage level (growth control rate): crop rice; for soybean plant damage level (growth control rate): crop soybean
Procedure, shortened: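 Weed and crop seeds were sown in soil-filled pots, covered with 0.5–2 cm soil and grown in a greenhouse. Plants were sprayed 2–3 weeks after sowing using a spray tower, with compound dissolved in acetone plus Tween 80 and diluted in water. Effect was expressed as fresh-weight growth control rate.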

Compound | effect on gramineous weeds [1] | Amaranthus retroflexus activity level (growth control rate) [2] | Echinochloa crus-galli activity level (growth control rate) [2] | Setaria viridis activity level (growth control rate) [2] | corn plant damage level (growth control rate) [3] | rice plant damage level (growth control rate) [3] | soybean plant damage level (growth control rate) [3] | Digitaria sanguinalis activity level (growth control rate) [2]
CC(C)N1C(=O)c2ccccc2NS1(=O)=O [bentazone] | ineffective | – | – | – | – | – | – | –
CCC(=O)N1c2ccc(F)cc2C(=O)N(C(C)C)S1(=O)=O [Compound 179] | – | 5 (Level 5: growth control rate is above 85%) | 5 (Level 5: growth control rate is above 85%) | 3 (Level 3: growth control rate is greater than or equal to 40% and less than 60%) | 0 (Level 0: growth control rate is less than 5%) | 1 (Level 1: growth control rate is greater than or equal to 500 and less than 200%) | 1 (Level 1: growth control rate is greater than or equal to 500 and less than 200%) | –
C=CC(=O)N1c2ccc(F)cc2C(=O)N(C(C)C)S1(=O)=O [Compound 183] | – | 3 (Level 3: growth control rate is greater than or equal to 40% and less than 60%) | – | – | 0 (Level 0: growth control rate is less than 5%) | 0 (Level 0: growth control rate is less than 5%) | 0 (Level 0: growth control rate is less than 5%) | –
CCCOC(=O)N1c2ccc(F)cc2C(=O)N(C(C)C)S1(=O)=O [Compound 186] | – | 4 (Level 4: growth control rate is greater than or equal to 60% and less than 85%) | – | – | 0 (Level 0: growth control rate is less than 5%) | 0 (Level 0: growth control rate is less than 5%) | 0 (Level 0: growth control rate is less than 5%) | –
CC(C)N1C(=O)c2cc(F)cc(Br)c2N(C(=O)C2CC2)S1(=O)=O [Compound 199] | – | 5 (Level 5: growth control rate is above 85%) | – | 5 (Level 5: growth control rate is above 85%) | 0 (Level 0: growth control rate is less than 5%) | 1 (Level 1: growth control rate is greater than or equal to 500 and less than 200%) | – | –
CC(C)N1C(=O)c2cc(F)cc(F)c2N(C(=O)N(C)C)S1(=O)=O [Compound 223] | – | 5 (Level 5: growth control rate is above 85%) | 3 (Level 3: growth control rate is greater than or equal to 40% and less than 60%) | 5 (Level 5: growth control rate is above 85%) | 0 (Level 0: growth control rate is less than 5%) | 0 (Level 0: growth control rate is less than 5%) | – | 5 (Level 5: growth control rate is above 85%)
CCCCOC(=O)N1c2c(F)cc(F)cc2C(=O)N(C(C)C)S1(=O)=O [Compound 220] | – | 4 (Level 4: growth control rate is greater than or equal to 60% and less than 85%) | 5 (Level 5: growth control rate is above 85%) | 5 (Level 5: growth control rate is above 85%) | 1 (Level 1: growth control rate is greater than or equal to 500 and less than 200%) | – | – | 3 (Level 3: growth control rate is greater than or equal to 40% and less than 60%)
CC(C)N1C(=O)c2cc(I)ccc2NS1(=O)=O [C, reference compound] | – | 0 (Level 0: growth control rate is less than 5%) | 0 (Level 0: growth control rate is less than 5%) | 0 (Level 0: growth control rate is less than 5%) | 0 (Level 0: growth control rate is less than 5%) | 0 (Level 0: growth control rate is less than 5%) | 0 (Level 0: growth control rate is less than 5%) | 0 (Level 0: growth control rate is less than 5%)
CCOC(=O)OC(C)N1c2c(Br)cc(F)cc2C(=O)N(C(C)C)S1(=O)=O (centres unmarked) [Compound 155] | – | 5 (Level 5: growth control rate is above 85%) | 5 (Level 5: growth control rate is above 85%) | 5 (Level 5: growth control rate is above 85%) | 0 (Level 0: growth control rate is less than 5%) | 0 (Level 0: growth control rate is less than 5%) | 1 (Level 1: growth control rate is greater than or equal to 500 and less than 200%) | 5 (Level 5: growth control rate is above 85%)
